What was measured:
[1] = tested on: osteoblast-like MG63 cells; assay: Viability of MG63 cells by uptake of 3H labelled Thymine in the formation of DNA; format: cell-based, human; conditions: concentrations 10^−8M to 10^−5M, compared with control samples
[2] = tested on: cultured cell lines derived from skin and liver; assay: Cell toxicity in cultured cell lines derived from skin and liver; format: cell-based
[3] = tested on: bone loss induced by oviarectomy; assay: Oviarectomized (oestrogen deficient) mouse model of osteoporosis, tibial μCT; format: in vivo, C57Black mice; conditions: OVx mice, 15 μg/mouse/day intraperitoneally, 5 weeks
From the text: The most widely accepted animal model of osteoporosis is the oestrogen deficient rodent, with this model the effect of the present invention has been tested in vivo. All procedures were done under Home Office licence and full local ethical requirements. C57Black mice were randomly assigned to receive total bi-lateral oviarectomy or sham operation. The oviarectomized animals were randomly assigned for treatment or to an untreated control group. At operation eight animals were in each group. • The mice were housed under standard animal house conditions with 12 hour light dark cycles in temperature and humidity controlled conditions for 5 weeks. The Sham and control oviarectomized mice received 10% ethanol in saline vehicle injections intraperitoneally once per day. The NaQuinate treated mice received a single injection (15 μg/mouse/day) administered in 10% ethanol in saline injections intraperitoneally. All mice received the same volume of test sample and this complied with Home Office regulations. • After 5 weeks treatment the animals were sacrificed by a Schedule 1 method and the tibiae removed for X-ray micro-Computer Tomography (μCT) imaging analyses.

[4] = tested on: bone loss in neurectomized limbs; assay: Disuse osteoporosis induced by sciatic neurectomy, tibial μCT; format: in vivo, mice
Procedure: Disuse osteoporosis was induced by right side sciatic neurectomy (SN). Mice were anaesthetized with oxygen and halothane and SN was achieved by resecting a 3-4 mm segment of the sciatic nerve posterior to the hip joint. On the 4th day after surgery mice were treated with either; control or NaQuinate for 5 days/week for 2 weeks. The tibias of both limbs were analysed by micro computerized tomography (μCT).

[5] = tested on: interleukin-6 release from MG63 osteoblast-like cells; assay: Inhibition of E. coli LPS-stimulated interleukin-6 release from cultured MG63 osteoblast-like cells; format: cell-based, human; conditions: E. coli LPS 25 ng/ml
From the text: 1. There are numerous factors that regulate bone physiology. Targeting the agents that induce bone resorption by recruiting/activating the cells that induce bone loss (the osteoclasts) has had limited exposure/efficacy. Most current therapies target the osteoclasts once they have been recruited or activated. A family of locally (bone) produced proteins called cytokines can induce a range of stimuli that can affect osteoclast number/activity. One of these cytokines is called interleukin-6 (IL-6). IL-6 is released by many cell types, including the bone forming cells (osteoblasts), following challenge from a range of agonists. These agonists can be physiological (1,25(OH)2 vitamin D3, interleukin-1β) or pathophysiological (interleukin-1β; bacterial endotoxin). • In vitro studies focussed on an immortalised osteoblast-like cell line called MG63 that was derived from a human osteosarcoma (bone cancer). These cells were cultured and screened for their ability to synthesize and release a range of cytokines including IL-6. Due to the well described activities of IL-6 induced bone loss this cytokine was focussed upon (see Manolagas S. C., Ann N Y Acad. Sci. 1998 May 1; 840:194-204). […] IL-6 can be measured by commercial immunoassays, for example, the QuantiGlo IL-6 Immunoassay from R&D systems.

[6] = neurectomized limbs, treated 5 days/week for 2 weeks
[7] = normal (non-neurectomized) bone

| Structure (SMILES) | DNA synthesis (3H-Thymine incorporation) of MG63 cells [1] | cell toxicity [2] | percentage bone content (bone volume) in the trabecular compartment [3] | trabecular number, tibial trabecular compartment [3] | bone loss assessed by % bone volume [4, 6] | bone loss assessed by trabecular number [4, 6] | normal bone trabecular number [4, 7] | normal bone volume [4, 7] | inhibition of LPS-stimulated interleukin-6 release (in words) [5] |
| --- | --- | --- | --- | --- | --- | --- | --- | --- | --- |
| CC1=C(C/C=C(\C)CCC(=O)O)C(=O)c2ccccc2C1=O [NaQuinate (VIII), (4E)-6-(1,4-dihydro-2-methyl-1,4-dioxonaphthalen-3-yl)-4-methylhex-4-enoic acid] | continue normal DNA synthesis under all concentrations tested | lack of cell toxicity | completely attenuated the bone loss | completely attenuated the bone loss | inhibits bone loss in neurectomized limbs | inhibits bone loss in neurectomized limbs | does not alter normal bone trabecular number | does not alter normal bone volume |  |
| CC1=C(C/C=C(\C)C(=O)O)C(=O)c2ccccc2C1=O [KCAT-5C (XIV), (2E)-4-(1,4-dihydro-2-methyl-1,4-dioxonaphthalen-3-yl)-2-methylbut-2-enoic acid] |  |  |  |  |  |  |  |  | only active inhibiting Interleukin-6 from cultured MG63 osteoblast-like cells at very high concentrations (10^−5 M) |
| CC1=C(CCCCCCCC(=O)O)C(=O)c2ccccc2C1=O [XV, 8-(1,4-dihydro-2-methyl-1,4-dioxonaphthalen-3-yl)octanoic acid] |  |  |  |  |  |  |  |  | completely inactive |
